Test results reported in PubChem BioAssay (NCI).
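Results reflect a 48-hour exposure of cells in 96-well plates to compound at five concentrations. TGI: concentration producing complete growth inhibition.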

What was measured:
Test in all cases: DTP human tumour cell line panel, 48 h
MALME-3M melanoma = system: MALME-3M melanoma
PC-3 prostate = system: PC-3 prostate
U251 CNS = system: U251 CNS
NCI/ADR-RES ovarian = system: NCI/ADR-RES ovarian
KM12 colon = system: KM12 colon
HCT-15 colon = system: HCT-15 colon
SR leukemia = system: SR leukemia
SK-MEL-5 melanoma = system: SK-MEL-5 melanoma
ACHN renal = system: ACHN renal
SK-MEL-28 melanoma = system: SK-MEL-28 melanoma
HCC-2998 colon = system: HCC-2998 colon
HCT-116 colon = system: HCT-116 colon
UACC-257 melanoma = system: UACC-257 melanoma
CAKI-1 renal = system: CAKI-1 renal

| Compound | TGI (MALME-3M melanoma) [µM] | TGI (PC-3 prostate) [µM] | TGI (U251 CNS) [µM] | TGI (NCI/ADR-RES ovarian) [µM] | TGI (KM12 colon) [µM] | TGI (HCT-15 colon) [µM] | TGI (SR leukemia) [µM] | TGI (SK-MEL-5 melanoma) [µM] | TGI (ACHN renal) [µM] | TGI (SK-MEL-28 melanoma) [µM] | TGI (HCC-2998 colon) [µM] | TGI (HCT-116 colon) [µM] | TGI (UACC-257 melanoma) [µM] | TGI (CAKI-1 renal) [µM] |
| --- | --- | --- | --- | --- | --- | --- | --- | --- | --- | --- | --- | --- | --- | --- |
| CN(C)CCCCN1c2ccccc2Sc2cc(N=[N+]=[N-])ccc21 | 3.34 | 4.22 | 4.27 | 4.07 | 3.17 | 4.53 | > 100 | 3.18 | 4.5 | 3.3 | 3.37 | 3.32 | 3.25 | 3.73 |
| COc1c2ccccc2c(OC)c2nc(C)ccc12 | > 100 | > 100 | > 46.4 | > 100 | > 100 | > 100 | > 79.5 | > 100 | > 100 | > 100 | > 100 | > 100 | > 100 | > 100 |
| O=[N+]([O-])c1ccc2[nH]ncc2c1Cl | – | 90.7 | > 100 | > 100 | > 100 | > 100 | > 100 | 27 | 51.5 | > 100 | > 100 | 80.4 | > 100 | – |
| O=c1c2cccnc2cc(-c2ccccc2)n1CCO | > 100 | > 100 | > 100 | > 100 | > 100 | > 100 | > 100 | > 100 | > 100 | > 100 | > 100 | > 100 | > 100 | – |
| CCCCCC(CO)C(O)(C(F)(F)F)C(F)(F)F (stereo not given) | > 10 | > 10 | > 10 | > 10 | > 10 | > 10 | > 10 | > 10 | > 10 | > 10 | > 10 | > 10 | > 10 | > 10 |
| CC(=O)OC1COC(n2c(-c3ccc(Cl)cc3)cc(-c3ccccc3)c(C#N)c2=S)C(OC(C)=O)C1OC(C)=O (stereo not given) | > 100 | 46.3 | 15.5 | 33.8 | > 100 | > 100 | > 82.8 | > 42.2 | > 31.6 | > 45.8 | > 90.3 | > 51.7 | > 100 | 50 |
| COC(=O)C1=Cc2cc(OC)c(O)cc2[C@@H](c2ccc(O)c(OC)c2)[C@@H]1C(=O)OC | > 100 | > 100 | > 100 | > 100 | > 100 | > 100 | > 100 | > 100 | > 100 | > 100 | > 100 | > 100 | > 100 | – |
| O=c1[nH]nc(Cc2ccccc2)n1/N=C/c1ccccc1Cl | > 100 | > 100 | > 100 | > 100 | > 100 | > 100 | > 100 | > 100 | > 100 | – | > 100 | > 100 | > 100 | > 100 |
| CN(C(=O)Cc1ccc(Cl)c(Cl)c1)[C@@H]1CCCC[C@H]1[N+]1(C)CC=CC1 | > 100 | > 100 | > 100 | > 100 | > 100 | > 100 | > 100 | > 100 | > 100 | > 100 | > 100 | > 100 | > 100 | > 100 |
| COc1ccc(/C=C2\CCCCCC2=O)cc1 | > 100 | > 100 | > 100 | > 100 | > 100 | > 100 | > 100 | > 100 | > 100 | > 100 | > 100 | > 100 | > 100 | > 100 |
| O=C(CCc1ccc(O)cc1)NCCc1cccc(OCc2ccccc2)c1 | 79.6 | 88.4 | 64.9 | > 100 | 83 | > 100 | 36.5 | 32.7 | > 100 | 63.2 | 41.3 | 50.6 | 39.3 | > 100 |
| c1ccc(Nc2nnc(Cn3ccc4ccccc43)s2)cc1 | – | > 100 | > 100 | > 100 | > 100 | > 100 | > 100 | > 100 | > 100 | > 100 | > 100 | > 100 | > 100 | 70.6 |
| COc1ccc2c(c1)N=C1CSC(c3cccc(Br)c3)N1C2 (stereo not given) | 43.1 | 38.4 | 44.3 | 58 | 36 | 35.5 | 23.1 | 27.6 | 31 | > 100 | 19.7 | 28.6 | 24.3 | 59.3 |
| CCCCC(=O)NC1(c2cc3ccccc3s2)CCCCC1 | > 100 | > 100 | > 100 | > 100 | > 100 | > 100 | > 100 | > 100 | > 100 | > 100 | > 100 | > 100 | > 100 | > 100 |
| O=C(C1C(c2ccccc2)N1C(c1ccccc1)c1ccccc1)C1C(c2ccccc2)N1C(c1ccccc1)c1ccccc1 (stereo not given) | – | 53.7 | 71.8 | > 100 | 72.8 | – | 16.6 | 49.8 | – | 36.1 | 37.8 | 15.8 | 40.3 | – |
| COC1=C(N2CC2)C(=O)c2nc3n(c2C1=O)CCC3 | 0.827 | 5.27 | 2.86 | 3.53 | 3.11 | 1.55 | 16.9 | 2.56 | 0.851 | 12.2 | 2.44 | 1.93 | – | – |
| C[C@H]1C[C@H](C)c2ccccc2N(C)C1=Nc1ccccc1 | 71.4 | > 100 | – | > 100 | > 100 | > 100 | 58.3 | 31.3 | > 100 | > 100 | > 100 | 46.3 | 48.2 | > 100 |
